Here are results for two compounds from patent US20250011311A1, “AMIDO HETEROAROMATIC COMPOUNDS” (AstraZeneca AB, priority 2022, published 2025).

Read-outs that look alike come from different tables or passages of the source.

For data set [1], the target named is recombinant 17bHSD13 (N2-K300) (Homo sapiens (Human), UniProt Q7Z5P4). The data set is described as follows: In Vitro 17bHSD13 Enzyme Assay. The format is biochemical. The following applies: 80 nM 17bHSD13, 0.5 mM NAD, 20 μM Estradiol, 2.5 h; estradiol to estrone by LC-MS/MS. A digest of the protocol:
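Human 17bHSD13 (N2-K300, 80 nM) with 0.5 mM NAD, 20 μM estradiol and varied compound in 50 mM Tris-Cl pH 7.4, 5 mM EDTA, 0.01% DDM. Estrone/(estrone+estradiol) ratio read by LC-MS/MS (APCI, positive MRM). Inhibition normalised to DMSO and a known-inhibitor control; IC50 from curve fit.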

Data set [2] deals with recombinant 17bHSD4 (M1-N311) (Homo sapiens (Human), UniProt P51659). The experiment in a line: In Vitro 17bHSD4 Enzyme Assay. The format is biochemical. The following applies: 40 nM 17bHSD4, 0.125 mM NAD, 15 μM Estradiol, 1.5 h; NADH fluorescence; read-out: 17HSD17b4 Enzyme assay IC50.
Data set [3] has as its target over expressed HSD17β13 in HEK293S cells (Homo sapiens (Human), UniProt Q7Z5P4). The experiment in a line: In Vitro 17bHSD13 Cell Assay. The class given is cell-based. Put shortly: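 HEK293S cells overexpressing HSD17β13 convert estradiol to estrone; product read by LC-MS/MS (APCI, positive MRM) as AUC ratio estrone/(estrone+estradiol). Effect normalised between DMSO and maximal inhibition by a known inhibitor control; IC50 from curve fit.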

The target of data set [4] is over expressed HSD17β9 in HEK293S cells (Homo sapiens (Human), UniProt Q92781). The experiment in a line: In Vitro 17bHSD9 Cell Assay. The format is cell-based. A digest of the protocol: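 HEK293S cells overexpressing HSD17β9 were plated at 10K cells/well in DMEM + 10% FBS and cultured 18 h. Retinol-to-retinal conversion in media was quantified by LC-MS/MS (MRM) as retinal/(retinal + retinol). IC50 was fitted after normalisation to DMSO and full inhibition by a reference inhibitor.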

The test system of a further data set is human hepatocytes. The experiment in a line: Assay A: Metabolic Stability in Human Hepatocytes. To be noted: cryopreserved human hepatocytes, 10^6 viable cells/mL, 1 μM compound, 37° C. The format is in vitro ADME. The procedure: Assay A: Metabolic Stability in Human Hepatocytes
Hepatocyte metabolic stability was determined in accordance with the method described by Jacobson et al., An optimized automated assay for determination of metabolic stability using hepatocytes: assay validation, variance component analysis, and in vivo relevance. Assay Drug Dev Technol 2007, 5 (3), 403-415. DOI: 10.1089/adt.2007.059, which is incorporated herein by reference. Cryopreserved hepatocytes at a concentration of 10^6 viable cells/mL were used. After thawing, hepatocytes were incubated for 10 min to warm to 37° C. and test compounds, dissolved in acetonitrile, were added to give a final concentration of 1 μM. At 0.5, 5, 15, 30, 45, 60, 80, 100 and 120 min, the incubation system was mixed and 20 μL aliquots were transferred at each time point to wells in a separate plate filled with 80 μL MeCN to stop the reaction. The quenching plate was then vortexed followed by centrifugation, and supernatants were analyzed by LC-MS/MS. Peak areas were determined from extracted ion chromatograms, and the in vitro intrinsic clearance (in vitro CLint, in μL/min/10^6 cells) of parent compound was calculated from the slope in the regression analysis of the natural logarithm of parent concentration vs time curve.

The next data set deals with CYP2C9 (Homo sapiens (Human), UniProt P11712). The experiment in a line: Assay B: Cytochrome P450 Inhibition 2C9.
Data set [5] addresses human CB1 receptor expressed in transfected CHO cells (Homo sapiens (Human), UniProt P21554). The data set is described as follows: Assay C: CB1 Agonism Assay. The class given is cell-based. To be noted: agonist activity, cAMP HTRF, read-out: Assay C: CB1 Hu CHO cAMP TRF Ag CR GMean EC50. How it is done:
Assay C: CB1 Agonism Assay
Evaluation of the agonist activity of compounds at the human CB1 receptor expressed in transfected CHO cells, determined by measuring their effects on cAMP modulation using the HTRF detection method.
Thereafter, the adenylyl cyclase activator NKH 477 is added at a final concentration of 3 μM. Following 20 min incubation at 37° C., the cells are lysed and the fluorescence acceptor (D2-labeled cAMP) and fluorescence donor (anti-cAMP antibody labeled with europium cryptate) are added. After 60 min at room temperature, the fluorescence transfer is measured at gex=337 nm and gem=620 and 665 nm using a microplate reader (RUBYSTAR, BMG). The cAMP concentration is determined by dividing the signal measured at 665 nm by that measured at 620 nm (ratio). The results are expressed as a percent of the control response to 30 nM CP 55940. The standard reference agonist is CP 55940, which is tested in each experiment at several concentrations to generate a concentration-response curve from which its EC50 value is calculated.
Bibliographic reference Felder, C. C. et al., (1995), Comparison of the pharmacology and signal transduction of the human cannabinoid CB1 and CB2 receptors, Mol. Pharmacol., 48: 443, which is incorporated herein by reference.
(In TR-FRET formats the signal depends on donor and acceptor labels being close together.)

Chain of recombinant 17bHSD4 (M1-N311) (P51659 1-311): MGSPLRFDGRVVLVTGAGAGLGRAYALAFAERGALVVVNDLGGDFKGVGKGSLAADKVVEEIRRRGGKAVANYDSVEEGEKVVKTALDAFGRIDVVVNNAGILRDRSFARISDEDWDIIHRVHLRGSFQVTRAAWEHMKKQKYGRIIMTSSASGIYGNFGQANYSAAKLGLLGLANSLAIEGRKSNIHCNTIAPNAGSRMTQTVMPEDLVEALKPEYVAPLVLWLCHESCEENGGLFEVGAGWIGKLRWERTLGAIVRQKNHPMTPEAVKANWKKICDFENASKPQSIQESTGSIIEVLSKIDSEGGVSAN
Chain of recombinant 17bHSD13 (N2-K300) (Q7Z5P4 2-300): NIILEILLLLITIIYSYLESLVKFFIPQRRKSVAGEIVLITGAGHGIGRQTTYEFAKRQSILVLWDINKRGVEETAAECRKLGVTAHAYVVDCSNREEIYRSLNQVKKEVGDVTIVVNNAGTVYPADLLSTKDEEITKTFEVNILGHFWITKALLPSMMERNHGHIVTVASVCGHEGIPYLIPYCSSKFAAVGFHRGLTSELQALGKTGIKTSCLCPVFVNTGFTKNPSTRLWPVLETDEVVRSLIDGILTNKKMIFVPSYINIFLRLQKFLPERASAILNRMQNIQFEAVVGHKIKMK
Chain of over expressed HSD17β13 in HEK293S cells (Q7Z5P4 20-300): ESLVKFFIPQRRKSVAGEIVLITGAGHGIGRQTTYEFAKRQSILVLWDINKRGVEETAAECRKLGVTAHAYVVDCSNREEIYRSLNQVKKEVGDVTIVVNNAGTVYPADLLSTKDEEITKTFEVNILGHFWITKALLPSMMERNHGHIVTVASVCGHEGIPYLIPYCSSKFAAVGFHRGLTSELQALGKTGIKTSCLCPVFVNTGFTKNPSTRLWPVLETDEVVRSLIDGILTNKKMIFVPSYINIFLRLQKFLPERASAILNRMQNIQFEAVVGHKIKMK
Chain of CYP2C9 (P11712 whole entry): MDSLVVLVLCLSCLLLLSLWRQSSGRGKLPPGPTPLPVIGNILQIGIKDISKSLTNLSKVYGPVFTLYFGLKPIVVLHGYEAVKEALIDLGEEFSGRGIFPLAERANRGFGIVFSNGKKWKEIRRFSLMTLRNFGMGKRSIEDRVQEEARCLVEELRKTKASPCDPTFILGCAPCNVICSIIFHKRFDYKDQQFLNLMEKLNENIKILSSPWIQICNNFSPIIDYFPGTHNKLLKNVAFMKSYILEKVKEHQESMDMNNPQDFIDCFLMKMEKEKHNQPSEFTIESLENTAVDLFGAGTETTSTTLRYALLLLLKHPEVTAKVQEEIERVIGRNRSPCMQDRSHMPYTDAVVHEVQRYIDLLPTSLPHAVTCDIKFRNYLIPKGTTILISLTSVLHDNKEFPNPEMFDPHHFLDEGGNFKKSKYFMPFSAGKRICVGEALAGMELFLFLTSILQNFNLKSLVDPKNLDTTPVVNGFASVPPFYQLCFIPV
Chain of over expressed HSD17β9 in HEK293S cells (Q92781 whole entry): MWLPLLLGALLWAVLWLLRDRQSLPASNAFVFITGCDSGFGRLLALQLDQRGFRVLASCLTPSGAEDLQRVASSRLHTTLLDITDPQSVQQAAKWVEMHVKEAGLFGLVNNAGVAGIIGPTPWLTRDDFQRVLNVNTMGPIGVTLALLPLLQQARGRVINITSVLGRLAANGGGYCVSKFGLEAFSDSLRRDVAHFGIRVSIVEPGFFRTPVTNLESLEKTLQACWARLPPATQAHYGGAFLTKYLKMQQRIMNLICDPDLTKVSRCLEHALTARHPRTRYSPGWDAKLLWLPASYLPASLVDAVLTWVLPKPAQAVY
Chain of human CB1 receptor expressed in transfected CHO cells (P21554 whole entry): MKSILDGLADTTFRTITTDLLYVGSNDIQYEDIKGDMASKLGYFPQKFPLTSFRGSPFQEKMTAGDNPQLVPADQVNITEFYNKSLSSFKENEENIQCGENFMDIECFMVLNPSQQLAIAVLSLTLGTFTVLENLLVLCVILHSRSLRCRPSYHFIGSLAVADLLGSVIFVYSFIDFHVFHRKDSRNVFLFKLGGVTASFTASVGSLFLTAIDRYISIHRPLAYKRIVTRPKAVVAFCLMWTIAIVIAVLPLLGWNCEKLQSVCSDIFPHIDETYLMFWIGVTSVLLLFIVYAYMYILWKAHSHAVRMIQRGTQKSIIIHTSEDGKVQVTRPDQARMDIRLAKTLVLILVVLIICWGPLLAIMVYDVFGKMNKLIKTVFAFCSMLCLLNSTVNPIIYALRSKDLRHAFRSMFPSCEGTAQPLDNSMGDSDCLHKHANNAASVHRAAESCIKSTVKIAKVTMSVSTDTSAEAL
Description for CYP2C9: A fluorescence-based method in 96-well format was used to determine the inhibition of 2C9 (Crespi, C. L. et al., Microtiter plate assays for inhibition of human, drug-metabolizing cytochromes P450. Anal Biochem 1997, 248 (1), 188-190. DOI: 10.1006/abio.1997.2145, which is incorporated herein by reference). The recombinant human enzymes used were prepared in house, except for CYP2D6 (CYPEX LTD, Dundee, UK). Different coumarin substrates, biotransformed into fluorescent metabolites, were used as probes for each individual CYP. A fluorescence plate reader (SPECTRAMAX GEMINIXS, MOLECULAR DEVICES, Sunnyvale, California, USA) was used to measure the levels of metabolites formed. A dilution series of the test substrates was prepared at eight different concentrations. For each CYP, a mixture of the enzyme, corresponding coumarin substrate, potassium phosphate buffer pH 7.4 and water (concentrations and volumes were CYP-dependent) were added to each well in a black 96-well plate. The test substrates at different concentrations were added. After 10 min pre-incubation, the co-factor NADPH was added to initiate the reaction. After 20-50 min (CYP and substrate-dependent) the reaction was terminated by addition of trisbase/MeCN (20:80). The plates were transferred to the fluorescence plate reader where the wavelengths were set individually for the different coumarin substrates and their respective fluorescent metabolite. The responses were exported to Excel where the IC50 curves were plotted (percent inhibition versus concentration) and IC50 values calculated for each test substrate and enzyme using XL-fit.

For `N#CC1(c2ccccc2)CCN(C(=O)c2noc(-c3cc(F)c(F)c(O)c3F)n2)CC1` [Example 80, 4-Phenyl-1-(5-(2,4,5-trifluoro-3-hydroxyphenyl)-1,2,4-oxadiazole-3-carbonyl)piperidine-4-carbonitrile], the half-inhibitory concentration (IC50) amounted to 0.111 µM in data set [1]; 21.9 µM in data set [2]; 0.46 µM in data set [3]; 8.2 µM in data set [4]; 3.3 µM at CYP2C9. The “Assay A: Human Heps Met Clint GMean CLint (μl/min/1E6)” value with human hepatocytes is 9.8 μl/min/1E6.
On to `N#Cc1cccc(C2CN(C(=O)c3noc(-c4cc(F)c(F)c(O)c4F)n3)C2)c1` [Example 85, 3-(1-(5-(2,4,5-Trifluoro-3-hydroxyphenyl)-1,2,4-oxadiazole-3-carbonyl)azetidin-3-yl)benzonitrile], for which the IC50 worked out at 0.317 µM in data set [1]; 21.7 µM in data set [2]; 3.38 µM in data set [3] (HEK293S cells over expressing HSD17β13, estradiol to estrone conversion, 18 h, LC-MS/MS, read-out: 17bHSD1713 Cell assay IC50); 3.4 µM at CYP2C9. Moreover, the “Assay A: Human Heps Met Clint GMean CLint (μl/min/1E6)” value in the data set on human hepatocytes is given as 14.1 μl/min/1E6. Besides, in data set [5], the EC50 was 9.3 µM.

As a reminder, the IC50 is the concentration needed to halve the response being measured. Broadly, the EC50 is the concentration needed to bring the measured effect to its halfway point.
